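Assay format: 96-well plates, 48-hour exposure. At the GI50, growth is halved.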 Active and inactive are the calls of the source. Rule as the data show it: active = GI50 up to about 1.1 µM and inactive = higher.
Legend:
Assay in all cases: NCI tumour cell line growth inhibition, 48 h
786-0 = system: 786-0
A498 = system: A498
A549 = system: A549
ACHN = system: ACHN
CAKI-1 = system: CAKI-1
CCRF-CEM = system: CCRF-CEM
COLO 205 = system: COLO 205
DLD-1 = system: DLD-1
DMS-114 = system: DMS-114
DMS-273 = system: DMS-273
EKVX = system: EKVX
HCT-116 = system: HCT-116
HCT-15 = system: HCT-15
HL-60 = system: HL-60
HOP-18 = system: HOP-18
HOP-62 = system: HOP-62
HOP-92 = system: HOP-92
HT-29 = system: HT-29
IGROV-1 = system: IGROV-1
K562 = system: K562
KM-20L2 = system: KM-20L2
KM12 = system: KM12
LOX IMVI = system: LOX IMVI
LXFL 529 = system: LXFL 529
M14 = system: M14
M19-MEL = system: M19-MEL
MOLT-4 = system: MOLT-4
Malme-3M = system: Malme-3M
NCI-H226 = system: NCI-H226
NCI-H23 = system: NCI-H23
NCI-H460 = system: NCI-H460
NCI-H522 = system: NCI-H522
OVCAR-3 = system: OVCAR-3
OVCAR-4 = system: OVCAR-4
OVCAR-5 = system: OVCAR-5
OVCAR-8 = system: OVCAR-8
RPMI-8226 = system: RPMI-8226
RXF 393 = system: RXF 393
RXF 631 = system: RXF 631
SF-268 = system: SF-268
SF-295 = system: SF-295
SF-539 = system: SF-539
SK-MEL-28 = system: SK-MEL-28
SK-MEL-2 = system: SK-MEL-2
SK-MEL-5 = system: SK-MEL-5
SK-OV-3 = system: SK-OV-3
SNB-19 = system: SNB-19
SNB-75 = system: SNB-75
SNB-78 = system: SNB-78
SW-620 = system: SW-620
TK-10 = system: TK-10
U-251 = system: U-251
UACC-257 = system: UACC-257
UACC-62 = system: UACC-62
UO-31 = system: UO-31
HCC 2998 = system: HCC 2998
SN12C = system: SN12C
SR = system: SR

Question: With `O=C1/C(=C/c2cccc([N+](=O)[O-])c2)COc2ccccc21` as the compound, how does the GI50 (786-0) read?
Answer: 1.63 µM (inactive)

Question: What about the GI50 (A498) of the same compound?
Answer: 40.8 µM (inactive)

Question: What about the GI50 (A549) of the same compound?
Answer: 41.2 µM (inactive)

Question: And the GI50 (ACHN)?
Answer: 5.13 µM (inactive)

Question: What about the GI50 (CAKI-1) of the same compound?
Answer: 5.33 µM (inactive)

Question: What about the GI50 (CCRF-CEM) of the same compound?
Answer: 1.53 µM (inactive)

Question: What about the GI50 (COLO 205) of the same compound?
Answer: > 42.2 µM (inactive)

Question: What about the GI50 (DLD-1) of the same compound?
Answer: 2.94 µM (inactive)

Question: What about the GI50 (DMS-114) of the same compound?
Answer: 2.84 µM (inactive)

Question: What about the GI50 (DMS-273) of the same compound?
Answer: 1.95 µM (inactive)

Question: And the GI50 (EKVX)?
Answer: 25.6 µM (inactive)

Question: And the GI50 (HCT-116)?
Answer: 1.76 µM (inactive)

Question: And the GI50 (HCT-15)?
Answer: 1550 nM

Question: And the GI50 (HL-60)?
Answer: 2.08 µM (inactive)

Question: And the GI50 (HOP-18)?
Answer: 4.55 µM (inactive)

Question: And the GI50 (HOP-62)?
Answer: 11 µM (inactive)

Question: What about the GI50 (HOP-92) of the same compound?
Answer: 19.1 µM (inactive)

Question: And the GI50 (HT-29)?
Answer: 2.36 µM (inactive)

Question: And the GI50 (IGROV-1)?
Answer: 7.85 µM (inactive)

Question: And the GI50 (K562)?
Answer: 1.46 µM (inactive)

Question: And the GI50 (KM-20L2)?
Answer: 4.99 µM (inactive)

Question: What about the GI50 (KM12) of the same compound?
Answer: 2.5 µM (inactive)

Question: What about the GI50 (LOX IMVI) of the same compound?
Answer: 1.8 µM (inactive)

Question: And the GI50 (LXFL 529)?
Answer: 2.43 µM (inactive)

Question: What about the GI50 (M14) of the same compound?
Answer: 1.83 µM (inactive)

Question: What about the GI50 (M19-MEL) of the same compound?
Answer: 2.32 µM (inactive)

Question: What about the GI50 (MOLT-4) of the same compound?
Answer: 2.31 µM (inactive)

Question: And the GI50 (Malme-3M)?
Answer: 16.1 µM (inactive)

Question: And the GI50 (NCI-H226)?
Answer: 3.86 µM (inactive)

Question: What about the GI50 (NCI-H23) of the same compound?
Answer: 6.76 µM (inactive)

Question: What about the GI50 (NCI-H460) of the same compound?
Answer: 15.6 µM (inactive)

Question: What about the GI50 (NCI-H522) of the same compound?
Answer: 1.67 µM (inactive)

Question: And the GI50 (OVCAR-3)?
Answer: 2.79 µM (inactive)

Question: And the GI50 (OVCAR-4)?
Answer: 2.49 µM (inactive)

Question: And the GI50 (OVCAR-5)?
Answer: > 35 µM (inactive)

Question: And the GI50 (OVCAR-8)?
Answer: 2.84 µM (inactive)

Question: And the GI50 (RPMI-8226)?
Answer: 1.01 µM (active)

Question: What about the GI50 (RXF 393) of the same compound?
Answer: 4.65 µM (inactive)

Question: What about the GI50 (RXF 631) of the same compound?
Answer: 6 µM (inactive)

Question: And the GI50 (SF-268)?
Answer: 8.99 µM (inactive)

Question: What about the GI50 (SF-295) of the same compound?
Answer: 11.2 µM (inactive)

Question: And the GI50 (SF-539)?
Answer: 4.42 µM (inactive)

Question: And the GI50 (SK-MEL-28)?
Answer: 2.92 µM (inactive)

Question: And the GI50 (SK-MEL-2)?
Answer: 6.1 µM (inactive)

Question: And the GI50 (SK-MEL-5)?
Answer: 2.32 µM (inactive)

Question: And the GI50 (SK-OV-3)?
Answer: 30.2 µM (inactive)

Question: What about the GI50 (SNB-19) of the same compound?
Answer: 2.82 µM (inactive)

Question: And the GI50 (SNB-75)?
Answer: 13.1 µM (inactive)

Question: And the GI50 (SNB-78)?
Answer: 6.53 µM (inactive)

Question: And the GI50 (SW-620)?
Answer: 1.11 µM (active)

Question: And the GI50 (TK-10)?
Answer: 23 µM (inactive)

Question: What about the GI50 (U-251) of the same compound?
Answer: 2.62 µM (inactive)

Question: And the GI50 (UACC-257)?
Answer: 7.69 µM (inactive)

Question: What about the GI50 (UACC-62) of the same compound?
Answer: 1.67 µM (inactive)

Question: And the GI50 (UO-31)?
Answer: 15.2 µM (inactive)

Question: For `O=C(O)[C@@H]1CCCC[C@@H]1C(=O)N(C1CCCCC1)C1CCCCC1`, which GI50 (786-0) is on record?
Answer: > 100 µM (inactive)

Question: And the GI50 (A498)?
Answer: > 100 µM (inactive)

Question: And the GI50 (A549)?
Answer: > 100 µM (inactive)

Question: What about the GI50 (ACHN) of the same compound?
Answer: > 100 µM (inactive)

Question: And the GI50 (CAKI-1)?
Answer: > 100 µM (inactive)

Question: And the GI50 (CCRF-CEM)?
Answer: > 100 µM (inactive)

Question: And the GI50 (COLO 205)?
Answer: > 100 µM (inactive)

Question: What about the GI50 (DLD-1) of the same compound?
Answer: > 100 µM (inactive)

Question: What about the GI50 (DMS-114) of the same compound?
Answer: > 100 µM (inactive)

Question: And the GI50 (DMS-273)?
Answer: > 100 µM (inactive)

Question: And the GI50 (EKVX)?
Answer: > 100 µM (inactive)

Question: And the GI50 (HCC 2998)?
Answer: > 100 µM (inactive)

Question: What about the GI50 (HCT-116) of the same compound?
Answer: > 100 µM (inactive)

Question: What about the GI50 (HCT-15) of the same compound?
Answer: > 100000 nM

Question: What about the GI50 (HL-60) of the same compound?
Answer: > 100 µM (inactive)

Question: What about the GI50 (HOP-62) of the same compound?
Answer: > 100 µM (inactive)

Question: What about the GI50 (HOP-92) of the same compound?
Answer: > 100 µM (inactive)

Question: What about the GI50 (HT-29) of the same compound?
Answer: > 100 µM (inactive)

Question: What about the GI50 (IGROV-1) of the same compound?
Answer: > 100 µM (inactive)

Question: What about the GI50 (K562) of the same compound?
Answer: > 100 µM (inactive)

Question: And the GI50 (KM-20L2)?
Answer: > 100 µM (inactive)

Question: And the GI50 (KM12)?
Answer: > 100 µM (inactive)

Question: What about the GI50 (LOX IMVI) of the same compound?
Answer: > 100 µM (inactive)

Question: And the GI50 (LXFL 529)?
Answer: > 100 µM (inactive)

Question: What about the GI50 (M14) of the same compound?
Answer: > 100 µM (inactive)

Question: What about the GI50 (M19-MEL) of the same compound?
Answer: > 100 µM (inactive)

Question: And the GI50 (MOLT-4)?
Answer: > 100 µM (inactive)

Question: What about the GI50 (Malme-3M) of the same compound?
Answer: > 100 µM (inactive)

Question: And the GI50 (NCI-H226)?
Answer: > 100 µM (inactive)

Question: What about the GI50 (NCI-H23) of the same compound?
Answer: > 100 µM (inactive)

Question: And the GI50 (NCI-H460)?
Answer: > 100 µM (inactive)

Question: And the GI50 (NCI-H522)?
Answer: > 100 µM (inactive)

Question: What about the GI50 (OVCAR-3) of the same compound?
Answer: > 100 µM (inactive)

Question: What about the GI50 (OVCAR-4) of the same compound?
Answer: > 100 µM (inactive)

Question: And the GI50 (OVCAR-5)?
Answer: > 100 µM (inactive)

Question: What about the GI50 (OVCAR-8) of the same compound?
Answer: > 100 µM (inactive)

Question: What about the GI50 (RPMI-8226) of the same compound?
Answer: > 100 µM (inactive)

Question: What about the GI50 (RXF 631) of the same compound?
Answer: > 100 µM (inactive)

Question: And the GI50 (SF-268)?
Answer: > 100 µM (inactive)

Question: And the GI50 (SF-295)?
Answer: > 100 µM (inactive)

Question: What about the GI50 (SF-539) of the same compound?
Answer: > 100 µM (inactive)

Question: What about the GI50 (SK-MEL-28) of the same compound?
Answer: > 100 µM (inactive)

Question: What about the GI50 (SK-MEL-2) of the same compound?
Answer: > 100 µM (inactive)

Question: And the GI50 (SK-MEL-5)?
Answer: > 100 µM (inactive)

Question: And the GI50 (SK-OV-3)?
Answer: > 100 µM (inactive)

Question: And the GI50 (SN12C)?
Answer: > 100 µM (inactive)

Question: And the GI50 (SNB-75)?
Answer: > 100 µM (inactive)

Question: And the GI50 (SNB-78)?
Answer: > 100 µM (inactive)

Question: And the GI50 (SR)?
Answer: > 100 µM (inactive)

Question: What about the GI50 (SW-620) of the same compound?
Answer: > 100 µM (inactive)

Question: What about the GI50 (TK-10) of the same compound?
Answer: > 100 µM (inactive)

Question: What about the GI50 (U-251) of the same compound?
Answer: > 100 µM (inactive)

Question: What about the GI50 (UACC-257) of the same compound?
Answer: > 100 µM (inactive)

Question: What about the GI50 (UACC-62) of the same compound?
Answer: > 100 µM (inactive)

Question: What about the GI50 (UO-31) of the same compound?
Answer: > 100 µM (inactive)

Source: ChEMBL document CHEMBL1201862, “PubChem BioAssay data set” (2004)
